Measurements: patent US20040038428A1, “Protein microarrays” (priority 2000, published 2004)
Blank lines part the entries; values can stand above or below the molecule they belong to. No end group written: not given here.

Key:
FKBP12 = FKBP12 (Homo sapiens, UniProt P62942); conditions: read-out: dissociation constants for FKBP12; cited from earlier work
p42 MAP kinase (Erk2) = biological target: T1, p42 MAP kinase (Erk2) (Mus musculus, UniProt P63085); assay: kinase substrate screen on BSA-NHS slides with 33P-γ-ATP, Erk2; type: biochemical; conditions: slide incubated with Erk2
T1 construct: purchased New England Biolabs (Beverly, Mass.)
T1 sequence (P63085 2-358 limits assumed): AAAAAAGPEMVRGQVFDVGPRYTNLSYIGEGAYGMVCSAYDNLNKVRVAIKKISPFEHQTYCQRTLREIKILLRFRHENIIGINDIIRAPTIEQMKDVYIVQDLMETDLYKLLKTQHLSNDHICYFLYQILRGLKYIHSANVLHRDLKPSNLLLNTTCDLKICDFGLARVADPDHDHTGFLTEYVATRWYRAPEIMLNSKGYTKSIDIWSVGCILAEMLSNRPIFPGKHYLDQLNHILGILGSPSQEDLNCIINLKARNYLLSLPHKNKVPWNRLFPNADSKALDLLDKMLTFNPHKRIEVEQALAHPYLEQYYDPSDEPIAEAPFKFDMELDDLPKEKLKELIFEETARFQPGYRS
Experimental: (§1) To give but one example, most signal transduction networks are composed of numerous kinases and the proteins that they phosphorylate. Protein microarrays offer an ideal system for the rapid and parallel identification of the substrates of protein kinases. A microarray of proteins can be incubated with a purified kinase in the presence of ATP, and the substrates identified by detecting their phosphorylation. In but one exemplary system, three different kinase/substrate pairs were chosen: cAMP-dependent protein kinase (PKA) and “Kemptide” (a peptide substrate for PKA) (Kemp et al. J. Biol. Chem. 252:4888-4894, 1977; incorporated herein by reference); casein kinase II (CKII) and protein phosphatase inhibitor 2 (I-2) (DePaoli-Roach J. Biol. Chem. 259:12144-12152, 1984; incorporated herein by reference); and p42 MAP kinase (Erk2) and Elk1 (Marais et al. Cell 73:381-393, 1993; incorporated herein by reference). […] Following a three-hour incubation, each slide was quenched with glycine and incubated with a different kinase in the presence of ^33P-γ-ATP (FIG. 3). […]
(§2) The slide in FIG. 3A was incubated with PKA. […] Since isotopic […] is known to be quantitative, the best substrates in a library of peptides can be readily identified. […]
(§3) For FIG. 3, the proteins were spotted on BSA-NHS slides using a GMS 417 Arrayer. […] The slides were then ready for further processing (see below). […]

[1] = biological target: T2, cAMP-dependent protein kinase (PKA) (Mus musculus, UniProt P05132); assay: kinase substrate screen on BSA-NHS slides with 33P-γ-ATP, PKA; type: biochemical; conditions: slide incubated with PKA
T2 construct: purchased New England Biolabs (Beverly, Mass.)
Experimental: as §1, §2, §3

[2] = tested on: 5-helix (portion of the HIV protein gp41); conditions: rank among the three peptides; cited from earlier work
casein kinase II (CKII) = biological target: T3, casein kinase II (CKII) (Homo sapiens, UniProt P68400); assay: kinase substrate screen on BSA-NHS slides with 33P-γ-ATP, CKII; type: biochemical; conditions: slide incubated with CKII
T3 construct: purchased New England Biolabs (Beverly, Mass.)
T3 sequence (P68400 whole entry): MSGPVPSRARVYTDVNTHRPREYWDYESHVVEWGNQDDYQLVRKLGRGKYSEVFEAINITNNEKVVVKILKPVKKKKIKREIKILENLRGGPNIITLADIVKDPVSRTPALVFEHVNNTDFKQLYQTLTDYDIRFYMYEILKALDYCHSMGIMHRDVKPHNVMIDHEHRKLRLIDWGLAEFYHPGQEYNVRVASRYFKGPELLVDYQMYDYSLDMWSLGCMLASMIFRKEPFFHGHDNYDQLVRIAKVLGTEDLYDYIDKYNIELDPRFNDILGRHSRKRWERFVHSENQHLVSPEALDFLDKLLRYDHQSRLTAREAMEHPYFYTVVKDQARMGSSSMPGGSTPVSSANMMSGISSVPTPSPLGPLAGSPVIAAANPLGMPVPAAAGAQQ
T3 sequence (P67870 whole entry partner): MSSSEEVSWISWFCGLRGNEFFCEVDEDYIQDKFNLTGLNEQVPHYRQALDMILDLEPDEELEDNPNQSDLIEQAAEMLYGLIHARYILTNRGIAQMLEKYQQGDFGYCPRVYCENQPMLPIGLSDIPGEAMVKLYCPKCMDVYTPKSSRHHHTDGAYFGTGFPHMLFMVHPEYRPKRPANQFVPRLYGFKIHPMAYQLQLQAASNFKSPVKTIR
Experimental: as §1, §2, §3

[3] = biological target: T4, p50 (of the NFκB complex) (Homo sapiens, UniProt P19838); assay: protein microarray: protein-protein interaction, p50 spots; type: binding; conditions: probe 0.1 μg/ml
T4 construct: p50 (of the NFκB complex) and IκBα
T4 sequence (P19838 1-433 limits assumed): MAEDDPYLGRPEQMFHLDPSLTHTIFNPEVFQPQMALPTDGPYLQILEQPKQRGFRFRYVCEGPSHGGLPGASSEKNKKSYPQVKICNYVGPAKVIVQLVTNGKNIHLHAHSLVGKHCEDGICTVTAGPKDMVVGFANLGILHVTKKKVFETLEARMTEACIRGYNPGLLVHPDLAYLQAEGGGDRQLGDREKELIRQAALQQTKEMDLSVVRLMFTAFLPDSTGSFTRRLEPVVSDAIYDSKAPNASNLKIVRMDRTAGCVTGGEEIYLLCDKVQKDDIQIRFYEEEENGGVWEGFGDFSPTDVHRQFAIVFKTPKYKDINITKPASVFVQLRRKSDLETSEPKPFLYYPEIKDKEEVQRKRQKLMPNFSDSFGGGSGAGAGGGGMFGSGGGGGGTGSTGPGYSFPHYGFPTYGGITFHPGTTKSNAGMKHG
Text: Arraying Proteins on Glass Slides.
Screening for Protein-Protein Interactions.

FKBP12, sequence (P62942 whole entry): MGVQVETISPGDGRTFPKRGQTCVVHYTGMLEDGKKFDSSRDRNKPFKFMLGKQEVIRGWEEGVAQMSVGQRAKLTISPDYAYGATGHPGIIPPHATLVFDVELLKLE

Molecule: COc1ccc(CC[C@@H](OC(=O)[C@@H]2CCCCN2C(=O)Cc2ccccc2)c2cccc(OCC(=O)O)c2)cc1OC [Compound 3c]
Kd (FKBP12): 2.6 µM

Molecule: GGHTTWMEWDREINNYTSLIHSLIEESQNQQEKNEQELLGGHHHHHH [Compound C37-H6, peptide ligand for 5-helix]
relative affinity for 5-helix [2]: highest affinity

Molecule: GGHTTWMEADREINNYTSLIHSLIEESQNQQEKNEQELL [JN-DCC2, peptide ligand for 5-helix]
relative affinity for 5-helix [2]: lowest affinity

Molecule: GGHTTWMELDREINNYTSLIHSLIEESQNQQEKNEQELL [JN-DCC1, peptide ligand for 5-helix]
relative affinity for 5-helix [2]: second highest affinity

Second part, the molecule after the results:

phosphorylation of spotted substrate (p42 MAP kinase (Erk2)): phosphorylated
Molecule: Elk1: protein substrate of p42 MAP kinase (Erk2)

phosphorylation of spotted substrate [1]: phosphorylated
Molecule: LRRASLG [Kemptide]

phosphorylation of spotted substrate (casein kinase II (CKII)): phosphorylated
B1: I-2: protein phosphatase inhibitor 2, substrate of casein kinase II (protein, UniProt P41236 2-205, looked up)
Protein phosphatase inhibitor …: AASTASHRPIKGILKNKTSTTSSMVASAEQPRGNVDEELSKKSQKWDEMNILATYHPADKDYGLMKIDEPSTPYHSMMGDDEDACSDTEATEAMAPDILARKLAAAEGLEPKYRIQEQESSGEEDSDLSPEEREKKRQFEMKRKLHYNEGLNIKLARQLISKDLHDDDEDEEMLETADGESMNTEESNQGSTPSDQQQNKLRSS

localization of Cy3 fluorescence on array of protein G, p50 and GST-FRB [3]: localized to the p50-containing spots
B2: Cy3-conjugated IκBα: IκBα labeled with Cy3 (protein, UniProt P25963 1-317, looked up)
NF-kappa-B inhibitor alpha: MFQAAERPQEWAMEGPRDGLKKERLLDDRHDSGLDSMKDEEYEQMVKELQEIRLEPQEVPRGSEPWKQQLTEDGDSFLHLAIIHEEKALTMEVIRQVKGDLAFLNFQNNLQQTPLHLAVITNQPEIAEALLGAGCDPELRDFRGNTPLHLACEQGCLASVGVLTQSCTTPHLHSILKATNYNGHTCLHLASIHGYLGIVELLVSLGADVNAQEPCNGRTALHLAVDLQNPDLVSLLLKCGADVNRVTYQGYSPYQLTWGRPSTRIQQQLGQLTLENLQMLPESEDEESYDTESEFTEFTEDELPYDDCVFGGQRLTL
modifications: Cy3 label
